From ChEMBL document CHEMBL4627246, “Pyroglutamide-Based P2X7 Receptor Antagonists Targeting Inflammatory Bowel Disease” (J Med Chem, 2020)

What was measured:
Format in all cases: cell-based
CCRF-CEM = assay: Cytotoxicity against human CCRF-CEM cells assessed as effect on cell growth at 10 uM incubated for 48 hrs by sulforhodamine B assay
SR = assay: Cytotoxicity against human SR cells assessed as effect on cell growth at 10 uM incubated for 48 hrs by sulforhodamine B assay
K562 = assay: Cytotoxicity against human K562 cells assessed as effect on cell growth at 10 uM incubated for 48 hrs by sulforhodamine B assay; settings: k562, 48 h
HOP-62 = assay: Cytotoxicity against human HOP62 cells assessed as effect on cell growth at 10 uM incubated for 48 hrs by sulforhodamine B assay; settings: hop-62, 48 h
COLO 205 = assay: Cytotoxicity against human COLO205 cells assessed as effect on cell growth at 10 uM incubated for 48 hrs by sulforhodamine B assay; settings: colo 205, 48 h
HCC 2998 = assay: Cytotoxicity against human HCC2998 cells assessed as effect on cell growth at 10 uM incubated for 48 hrs by sulforhodamine B assay; settings: hcc 2998, 48 h
SF-539 = assay: Cytotoxicity against human SF539 cells assessed as effect on cell growth at 10 uM incubated for 48 hrs by sulforhodamine B assay; settings: sf-539, 48 h
MDA-MB-435 = assay: Cytotoxicity against human MDA-MB-435 cells assessed as effect on cell growth at 10 uM incubated for 48 hrs by sulforhodamine B assay; settings: mda-mb-435, 48 h
SK-MEL-28 = assay: Cytotoxicity against human SK-MEL-28 cells assessed as effect on cell growth at 10 uM incubated for 48 hrs by sulforhodamine B assay; settings: sk-mel-28, 48 h
UACC-257 = assay: Cytotoxicity against human UACC257 cells assessed as effect on cell growth at 10 uM incubated for 48 hrs by sulforhodamine B assay; settings: uacc-257, 48 h
OVCAR-3 = assay: Cytotoxicity against human OVCAR3 cells assessed as effect on cell growth at 10 uM incubated for 48 hrs by sulforhodamine B assay; settings: ovcar-3, 48 h
NCI/ADR-RES = assay: Cytotoxicity against human NCI/ADR-RES cells assessed as effect on cell growth at 10 uM incubated for 48 hrs by sulforhodamine B assay
A498 = assay: Cytotoxicity against human A498 cells assessed as effect on cell growth at 10 uM incubated for 48 hrs by sulforhodamine B assay; settings: a498, 48 h
ACHN = assay: Cytotoxicity against human ACHN cells assessed as effect on cell growth at 10 uM incubated for 48 hrs by sulforhodamine B assay
CAKI-1 = assay: Growth inhibition of human Caki1 cells assessed as growth percentage at 10 uM incubated for 48 hrs by sulforhodamine B assay; settings: caki-1, 48 h
RXF 393 = assay: Cytotoxicity against human RXF393 cells assessed as effect on cell growth at 10 uM incubated for 48 hrs by sulforhodamine B assay; settings: rxf 393, 48 h
SN12C = assay: Cytotoxicity against human SN12C cells assessed as effect on cell growth at 10 uM incubated for 48 hrs by sulforhodamine B assay
TK-10 = assay: Cytotoxicity against human TK10 cells assessed as effect on cell growth at 10 uM incubated for 48 hrs by sulforhodamine B assay; settings: tk-10, 48 h
UO-31 = assay: Cytotoxicity against human UO31 cells assessed as effect on cell growth at 10 uM incubated for 48 hrs by sulforhodamine B assay; settings: uo-31, 48 h
Hs-578T = assay: Cytotoxicity against human Hs 578T cells assessed as effect on cell growth at 10 uM incubated for 48 hrs by sulforhodamine B assay

Measured: Activity

COc1ccc(NC(=O)[C@@H]2CCC(=O)N2)cc1OC
Non-Toxic: CCRF-CEM | SR | K562 | HOP-62 | COLO 205 | HCC 2998 | SF-539 | MDA-MB-435 | SK-MEL-28 | UACC-257 | OVCAR-3 | NCI/ADR-RES | A498 | ACHN | CAKI-1 | RXF 393 | SN12C | TK-10 | UO-31 | Hs-578T

O=C(NCc1ccc(Cl)cc1Cl)[C@@H]1CCC(=O)N1C(c1ccccc1)c1ccccc1
Non-Toxic: CCRF-CEM | SR | K562 | HOP-62 | COLO 205 | HCC 2998 | SF-539 | MDA-MB-435 | SK-MEL-28 | UACC-257 | OVCAR-3 | NCI/ADR-RES | A498 | ACHN | CAKI-1 | RXF 393 | SN12C | TK-10 | UO-31 | Hs-578T

O=C(NCc1ccc(Cl)cc1Cl)[C@@H]1CCC(=O)N1c1ccc(Cl)cc1
Non-Toxic: CCRF-CEM | SR | K562 | HOP-62 | COLO 205 | HCC 2998 | SF-539 | MDA-MB-435 | SK-MEL-28 | UACC-257 | OVCAR-3 | NCI/ADR-RES | A498 | ACHN | CAKI-1 | RXF 393 | SN12C | TK-10 | UO-31 | Hs-578T

COc1cc(CN/C=C2\C[C@@H](C(=O)NCc3ccc(Cl)cc3Cl)NC2=O)cc(OC)c1OC
Non-Toxic: CCRF-CEM | SR | K562 | HOP-62 | COLO 205 | HCC 2998 | SF-539 | MDA-MB-435 | SK-MEL-28 | UACC-257 | OVCAR-3 | NCI/ADR-RES | A498 | ACHN | CAKI-1 | RXF 393 | SN12C | TK-10 | UO-31 | Hs-578T

O=C(NCc1ccccc1Cl)[C@@H]1CCC(=O)N1Cc1ccccc1
Non-Toxic: CCRF-CEM | SR | K562 | HOP-62 | COLO 205 | HCC 2998 | SF-539 | MDA-MB-435 | SK-MEL-28 | UACC-257 | OVCAR-3 | NCI/ADR-RES | A498 | ACHN | CAKI-1 | RXF 393 | SN12C | TK-10 | UO-31 | Hs-578T

COc1ccc(CNC(=O)[C@@H]2CCC(=O)N2Cc2ccc(Cl)cc2Cl)c(OC)c1
Non-Toxic: CCRF-CEM | SR | K562 | HOP-62 | COLO 205 | HCC 2998 | SF-539 | MDA-MB-435 | SK-MEL-28 | UACC-257 | OVCAR-3 | NCI/ADR-RES | A498 | ACHN | CAKI-1 | RXF 393 | SN12C | TK-10 | UO-31 | Hs-578T

C[n+]1ccccc1C(=O)NCc1ccc(Cl)cc1Cl.[I-]
Non-Toxic: CCRF-CEM | SR | K562 | HOP-62 | COLO 205 | HCC 2998 | SF-539 | MDA-MB-435 | SK-MEL-28 | UACC-257 | OVCAR-3 | NCI/ADR-RES | A498 | ACHN | CAKI-1 | RXF 393 | SN12C | TK-10 | UO-31 | Hs-578T

CN1C(=O)CC[C@H]1C(=O)NCc1cccc(C(F)(F)F)c1Cl [GSK1482160]
Non-Toxic: CCRF-CEM | SR | K562 | HOP-62 | COLO 205 | HCC 2998 | SF-539 | MDA-MB-435 | SK-MEL-28 | UACC-257 | OVCAR-3 | NCI/ADR-RES | A498 | ACHN | CAKI-1 | RXF 393 | SN12C | TK-10 | UO-31 | Hs-578T

O=C(NCc1ccc(Cl)cc1Cl)[C@@H]1CCC(=O)N1c1nccs1
Non-Toxic: CCRF-CEM | SR | K562 | HOP-62 | COLO 205 | HCC 2998 | SF-539 | MDA-MB-435 | SK-MEL-28 | UACC-257 | OVCAR-3 | NCI/ADR-RES | A498 | ACHN | CAKI-1 | RXF 393 | SN12C | TK-10 | UO-31 | Hs-578T
